This note sets out measurements from patent US20250243196A1, “CITRON KINASE INHIBITORS” (The Cleveland Clinic Foundation, priority 2021, published 2025).

Sequence of Citron kinase (O14578 whole entry): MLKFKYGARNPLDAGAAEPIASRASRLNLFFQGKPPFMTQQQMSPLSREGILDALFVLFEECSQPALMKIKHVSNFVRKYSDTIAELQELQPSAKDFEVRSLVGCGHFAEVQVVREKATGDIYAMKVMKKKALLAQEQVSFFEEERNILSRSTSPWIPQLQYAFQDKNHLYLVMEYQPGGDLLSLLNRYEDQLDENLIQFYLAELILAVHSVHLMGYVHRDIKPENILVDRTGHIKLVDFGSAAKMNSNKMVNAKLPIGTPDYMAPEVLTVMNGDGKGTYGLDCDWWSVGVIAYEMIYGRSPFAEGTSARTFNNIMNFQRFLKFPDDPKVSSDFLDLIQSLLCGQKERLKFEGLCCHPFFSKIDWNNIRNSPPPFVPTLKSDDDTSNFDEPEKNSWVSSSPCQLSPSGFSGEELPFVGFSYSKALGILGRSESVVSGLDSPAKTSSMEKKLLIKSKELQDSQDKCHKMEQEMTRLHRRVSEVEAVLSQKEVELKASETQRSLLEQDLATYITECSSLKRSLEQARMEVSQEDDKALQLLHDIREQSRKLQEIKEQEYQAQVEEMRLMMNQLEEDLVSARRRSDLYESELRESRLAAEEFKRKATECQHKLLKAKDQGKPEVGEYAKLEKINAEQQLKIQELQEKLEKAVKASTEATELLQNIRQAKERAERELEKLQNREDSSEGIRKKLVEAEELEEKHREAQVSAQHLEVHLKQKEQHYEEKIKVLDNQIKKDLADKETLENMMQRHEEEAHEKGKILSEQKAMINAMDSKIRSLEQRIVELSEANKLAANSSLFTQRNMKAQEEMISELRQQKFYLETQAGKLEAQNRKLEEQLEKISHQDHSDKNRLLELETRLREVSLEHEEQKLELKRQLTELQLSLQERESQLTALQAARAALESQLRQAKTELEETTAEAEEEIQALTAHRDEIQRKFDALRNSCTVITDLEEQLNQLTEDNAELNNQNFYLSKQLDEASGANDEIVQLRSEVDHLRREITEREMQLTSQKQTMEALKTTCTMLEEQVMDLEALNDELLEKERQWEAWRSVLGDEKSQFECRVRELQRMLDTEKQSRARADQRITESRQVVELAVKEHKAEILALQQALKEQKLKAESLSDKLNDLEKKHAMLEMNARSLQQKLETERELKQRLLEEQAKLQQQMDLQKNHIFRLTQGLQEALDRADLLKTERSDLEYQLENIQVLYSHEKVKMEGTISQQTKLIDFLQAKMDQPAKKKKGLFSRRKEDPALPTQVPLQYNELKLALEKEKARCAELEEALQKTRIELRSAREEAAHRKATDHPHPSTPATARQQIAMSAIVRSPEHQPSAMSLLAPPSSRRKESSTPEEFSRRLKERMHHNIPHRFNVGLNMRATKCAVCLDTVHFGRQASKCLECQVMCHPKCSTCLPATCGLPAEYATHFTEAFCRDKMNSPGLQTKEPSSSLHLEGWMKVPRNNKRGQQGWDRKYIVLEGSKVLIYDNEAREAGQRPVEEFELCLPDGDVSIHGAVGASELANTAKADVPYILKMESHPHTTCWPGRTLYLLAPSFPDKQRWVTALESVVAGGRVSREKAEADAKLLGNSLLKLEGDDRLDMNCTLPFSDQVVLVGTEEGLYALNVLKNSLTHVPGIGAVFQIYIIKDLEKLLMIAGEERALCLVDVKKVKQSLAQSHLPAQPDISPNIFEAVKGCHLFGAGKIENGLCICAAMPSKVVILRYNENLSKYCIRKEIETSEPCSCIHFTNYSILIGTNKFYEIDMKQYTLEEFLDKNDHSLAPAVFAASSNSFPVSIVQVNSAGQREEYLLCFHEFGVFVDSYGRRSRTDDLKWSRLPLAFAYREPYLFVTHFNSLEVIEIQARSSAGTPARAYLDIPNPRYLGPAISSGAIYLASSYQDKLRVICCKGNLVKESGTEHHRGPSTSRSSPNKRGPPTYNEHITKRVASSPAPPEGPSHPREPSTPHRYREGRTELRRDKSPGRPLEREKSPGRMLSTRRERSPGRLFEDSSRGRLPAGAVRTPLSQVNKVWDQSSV

This assay concerns the target Citron kinase (Homo sapiens (Human), UniProt O14578). As to the kind of experiment: Radiometric citron kinase assay (Eurofins Cat #16-040KP). Format: biochemical. The conditions noted are these: mean of at least two independent assays; read-out: Radiometric CitK IC50. The text has this:
In some embodiments, the step of contacting the sample with the compound comprises administering the compound to a subject (e.g., a subject) suffering from cancer. Methods of determining kinase inhibition are well known in the art. For example, kinase activity of an enzyme and the inhibitory capacity of a test compound can be determined by measuring enzyme specific phosphorylation of a substrate. Commercial assays and kits can be employed. For example, kinase inhibition can be determined using a radiometric binding assay, such as using KinaseProfiler™ technology (Eurofins Discovery). This assay method directly detects product formation without the use of modified substrates or coupling enzymes. Test compounds are incubated with kinase, substrate, required cofactors and radioisotope labeled ATP. Following incubation, unreacted radioactive ATP is removed by washing and incorporation of the radiolabeled phosphate into the kinase substrate is assayed to detect phosphoryltransferase activity, which is directly proportional to the amount of phosphorylated substrate. Inhibition of the kinase by a kinase inhibitor prevents phosphorylation of the substrate and thereby limits the incorporation of radiolabeled phosphate. Such an assay is compatible with a microwell assay format, allowing simultaneous determination of IC50 of multiple compounds.
Compounds were screened for biochemical kinase activity (Eurofins Discovery, France) using one of two assays. […] All values in Table 1 are the mean of at least two independent assays.
Regarding `COc1cc(-c2ccnc3[nH]ccc23)ccc1NC(=O)[C@H](N)Cc1ccccc1` [Compound F-131, (2R)-2-Amino-N-[2-methoxy-4-(1H-pyrrolo[2,3-b]pyridin-4-yl)phenyl]-3-phenyl-propanamide], the IC50 (usually the concentration at which inhibition is half-maximal) is 301 nM.

Consider `CN(C)CC(=O)Nc1ccc(-c2ccnc3[nH]ccc23)cc1` [Compound F-3, 2-(Dimethylamino)-N-[4-(1H-pyrrolo[2,3-b]pyridin-4-yl)phenyl]acetamide], for which the IC50 amounted to 1060 nM.

As to `Cc1cnc2[nH]ccc2c1-c1ccc(NC(=O)[C@H](N)C(C)(C)C)cc1` [Compound F-107, (2R)-2-Amino-3,3-dimethyl-N-[4-(5-methyl-1H-pyrrolo[2,3-b]pyridin-4-yl)phenyl]butanamide], the IC50 was found to be 371 nM.

Regarding `CCc1cc(NC(=O)[C@H](N)C(C)(C)C)ccc1-c1ccnc2[nH]c(C)cc12` [Compound F-93, (2R)-2-Amino-N-[3-ethyl-4-(2-methyl-1H-pyrrolo[2,3-b]pyridin-4-yl)phenyl]-3,3-dimethyl-butanamide], the IC50 was 121 nM.

With `Cc1cc(NC(=O)[C@H](N)C(C)(C)C)ccc1-c1ccnc2[nH]c(C(F)F)cc12` [Compound F-103, (2R)-2-Amino-N-[4-[2-(difluoromethyl)-1H-pyrrolo[2,3-b]pyridin-4-yl]-3-methyl-phenyl]-3,3-dimethyl-butanamide], the half-maximal inhibitory concentration (IC50) turned out to be 68.1 nM.

On to `Cc1cc2c(-c3csc(NC(=O)[C@@H](N)C(C)(C)C)n3)ccnc2[nH]1` [Compound F-113, (2S)-2-Amino-3,3-dimethyl-N-[4-(2-methyl-1H-pyrrolo[2,3-b]pyridin-4-yl)thiazol-2-yl]butanamide], for which the IC50 was found to be 111 nM.

For `CCc1c[nH]c2nccc(-c3ccc(NC(=O)[C@H](N)Cc4ccccc4)cc3)c12` [Compound F-136, (2R)-2-Amino-N-[4-(3-ethyl-1H-pyrrolo[2,3-b]pyridin-4-yl)phenyl]-3-phenyl-propanamide], the IC50 came out at 1260 nM.

Consider `Cc1cc2c(-c3ccc(NC(=O)[C@H](N)CC(C)(C)C)c(F)c3C)ccnc2[nH]1` [Compound F-156, (2R)-2-Amino-N-[2-fluoro-3-methyl-4-(2-methyl-1H-pyrrolo[2,3-b]pyridin-4-yl)phenyl]-4,4-dimethyl-pentanamide], for which the IC50 amounted to 10 nM.

As to `Cc1cc(NC(=O)[C@H](N)C(C)(C)C)ccc1-c1ccnc2[nH]c(C(F)(F)F)cc12` [Compound F-100, (2R)-2-Amino-3,3-dimethyl-N-[3-methyl-4-[2-(trifluoromethyl)-1H-pyrrolo[2,3-b]pyridin-4-yl]phenyl]butanamide], the IC50 came out at 380 nM.

For the compound `Cc1cc2c(-c3csc(NC(=O)[C@H](N)C(C)C)n3)ccnc2[nH]1` [Compound F-114, (2R)-2-Amino-3-methyl-N-[4-(2-methyl-1H-pyrrolo[2,3-b]pyridin-4-yl)thiazol-2-yl]butanamide], the IC50 stood at 244 nM.

Take `Cc1cc(NC(=O)[C@H](N)CC(C)C)ccc1-c1ccnc2[nH]c(C(F)(F)F)cc12` [Compound F-98, (2R)-2-Amino-4-methyl-N-[3-methyl-4-[2-(trifluoromethyl)-1H-pyrrolo[2,3-b]pyridin-4-yl]phenyl]pentanamide]: the half-inhibitory concentration (IC50) was 30.4 nM.

As for `CC(C)(C)C[C@@H](N)C(=O)Nc1ccc(-c2ccnc3[nH]c(C4CC4)cc23)cc1` [Compound F-141, (2R)-2-Amino-N-[4-(2-cyclopropyl-1H-pyrrolo[2,3-b]pyridin-4-yl)phenyl]-4,4-dimethyl-pentanamide], the IC50 is 10 nM.

For `CC(C)C[C@@H](N)C(=O)Nc1ccc(-c2ccnc3[nH]ccc23)c(OC(F)F)c1` [Compound F-82, (R)-2-Amino-N-(3-(difluoromethoxy)-4-(1H-pyrrolo[2,3-b]pyridin-4-yl)phenyl)-4-methylpentanamide], the IC50 is 21.5 nM.

Turning to `Cc1c(-c2ccnc3[nH]ccc23)ccc(NC(=O)[C@H](N)CC(C)C)c1F` [Compound F-72, (2R)-2-Amino-N-[2-fluoro-3-methyl-4-(1H-pyrrolo[2,3-b]pyridin-4-yl)phenyl]-4-methyl-pentanamide], the IC50 is 17 nM.

As to `Cc1cc2c(-c3ncc(NC(=O)[C@H](N)CC(C)(C)C)cc3C)ccnc2[nH]1` [Compound F-96, (2R)-2-Amino-4,4-dimethyl-N-[5-methyl-6-(2-methyl-1H-pyrrolo[2,3-b]pyridin-4-yl)-3-pyridyl]pentanamide], the 50% inhibitory concentration (IC50) came to 96.9 nM.

As for `Cc1c(-c2ccnc3[nH]c(C(F)(F)F)cc23)ccc(NC(=O)[C@H](N)CC(C)(C)C)c1F` [Compound F-147, (2R)-2-Amino-N-[2-fluoro-3-methyl-4-[2-(trifluoromethyl)-1H-pyrrolo[2,3-b]pyridin-4-yl]phenyl]-4,4-dimethyl-pentanamide], the IC50 was 24 nM.

As to `CC(O)[C@H](N)C(=O)Nc1ccc(-c2ccnc3[nH]ccc23)cc1` (stereo partly drawn) [Compound F-29, (2S)-2-Amino-3-hydroxy-N-[4-(1H-pyrrolo[2,3-b]pyridin-4-yl)phenyl]butanamide], the 50% inhibitory concentration (IC50) turned out to be 778 nM.

Consider `Cc1cc2c(-c3ccc(NC(=O)[C@H](N)C(C)(C)O)cc3OC(F)F)ccnc2[nH]1` [Compound F-170, (2R)-2-Amino-N-[3-(difluoromethoxy)-4-(2-methyl-1H-pyrrolo[2,3-b]pyridin-4-yl)phenyl]-3-hydroxy-3-methyl-butanamide], for which the IC50 stood at 315 nM.

`CC(C)(C)C[C@@H](N)C(=O)Nc1ccc(-c2ccnc3[nH]c(C(F)(F)F)cc23)nc1` [Compound F-104, (2R)-2-Amino-4,4-dimethyl-N-[6-[2-(trifluoromethyl)-1H-pyrrolo[2,3-b]pyridin-4-yl]-3-pyridyl]pentanamide]: the IC50 is 418 nM.

For `Cc1cc2c(-c3ccc(NC(=O)[C@H](N)CC(C)(C)C)cc3)ccnc2[nH]1` [Compound F-52, (2R)-2-Amino-4,4-dimethyl-N-[4-(2-methyl-1H-pyrrolo[2,3-b]pyridin-4-yl)phenyl]pentanamide], the IC50 amounted to 9.1 nM.

Regarding `COc1nc(NC(=O)[C@H](N)CC(C)(C)C)ccc1-c1ccnc2[nH]c(C(F)(F)F)cc12` [Compound F-154, (2R)-2-Amino-N-[6-methoxy-5-[2-(trifluoromethyl)-1H-pyrrolo[2,3-b]pyridin-4-yl]-2-pyridyl]-4,4-dimethyl-pentanamide], the IC50 came out at 59 nM.

For the compound `CC(C)(C)[C@@H](N)C(=O)Nc1nc(-c2ccnc3[nH]ccc23)cs1` [Compound F-111, (2R)-2-Amino-3,3-dimethyl-N-[4-(1H-pyrrolo[2,3-b]pyridin-4-yl)thiazol-2-yl]butanamide], the concentration for half-maximal inhibition (IC50) was 29.6 nM.

On to `CC(C)(C)C[C@@H](N)C(=O)Nc1ccc(-c2ccnc3[nH]c(C(F)F)cc23)nc1` [Compound F-105, (2R)-2-Amino-N-[6-[2-(difluoromethyl)-1H-pyrrolo[2,3-b]pyridin-4-yl]-3-pyridyl]-4,4-dimethyl-pentanamide], for which the IC50 was determined as 266 nM.

On to `CC(C)C[C@@H](N)C(=O)Nc1cccc(-c2ccnc3[nH]ccc23)c1` [Compound F-87, (2R)-2-Amino-4-methyl-N-[3-(1H-pyrrolo[2,3-b]pyridin-4-yl)phenyl]pentanamide], for which the IC50 was 245 nM.

For `COc1nc(NC(=O)[C@H](N)CC(C)C)ccc1-c1ccnc2[nH]c(C(F)(F)F)cc12` [Compound F-155, (2R)-2-Amino-N-[6-methoxy-5-[2-(trifluoromethyl)-1H-pyrrolo[2,3-b]pyridin-4-yl]-2-pyridyl]-4-methyl-pentanamide], the IC50 is 113 nM.

As for `Cc1cc2c(-c3ccc(NC(=O)C(N)C(O)C(C)(C)C)cc3C)ccnc2[nH]1` (centres unmarked) [Compound F-160, 2-Amino-3-hydroxy-4,4-dimethyl-N-[3-methyl-4-(2-methyl-1H-pyrrolo[2,3-b]pyridin-4-yl)phenyl]pentanamide], the IC50 worked out at 29 nM.

For `Cc1cc(-c2ccnc3[nH]ccc23)ccc1NC(=O)[C@H](N)Cc1ccccc1` [Compound F-132, (2R)-2-Amino-N-[2-methyl-4-(1H-pyrrolo[2,3-b]pyridin-4-yl)phenyl]-3-phenyl-propanamide], the IC50 amounted to 237 nM.

Regarding `CC(C)(C)C[C@@H](N)C(=O)Nc1ccc(-c2ccnc3[nH]c(C(F)(F)F)cc23)cn1` [Compound F-146, (2R)-2-Amino-4,4-dimethyl-N-[5-[2-(trifluoromethyl)-1H-pyrrolo[2,3-b]pyridin-4-yl]-2-pyridyl]pentanamide], the half-inhibitory concentration (IC50) was determined as 307 nM.

In the case of `COc1cc(NC(=O)[C@H](N)CC(C)(C)C)ccc1-c1ccnc2[nH]c(C)cc12` [Compound F-167, (2R)-2-Amino-N-[3-methoxy-4-(2-methyl-1H-pyrrolo[2,3-b]pyridin-4-yl)phenyl]-4,4-dimethyl-pentanamide], the IC50 was 50 nM.

Take `Cc1cc(NC(=O)[C@H](N)C(C)(C)O)ccc1-c1ccnc2[nH]c(C(F)F)cc12` [Compound F-139, (2R)-2-Amino-N-[4-[2-(difluoromethyl)-1H-pyrrolo[2,3-b]pyridin-4-yl]-3-methyl-phenyl]-3-hydroxy-3-methyl-butanamide]: the 50% inhibitory concentration (IC50) was found to be 151 nM.

Take `COc1cc(NC(=O)[C@H](N)CC(C)(C)C)ccc1-c1ccnc2[nH]ccc12` [Compound F-166, (2R)-2-Amino-N-[3-methoxy-4-(1H-pyrrolo[2,3-b]pyridin-4-yl)phenyl]-4,4-dimethyl-Pentanamide]: the IC50 came to 37 nM.

On to `Cc1cc2c(-c3ccc(NC(=O)[C@H](N)C(C)(C)C)cc3)ccnc2[nH]1` [Compound F-50, (2R)-2-Amino-3,3-dimethyl-N-[4-(2-methyl-1H-pyrrolo[2,3-b]pyridin-4-yl)phenyl]butanamide], for which the 50% inhibitory concentration (IC50) is 59 nM.
